ChEMBL document CHEMBL1201862, “PubChem BioAssay data set” (2004)
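Five compound concentrations were applied to cells in 96-well plates for 48 hours; endpoints were derived by simple linear interpolation of the resulting dose-response curve. At the GI50, growth is halved.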 Activity calls are given as the source filed them. No stated cut-off is given here; in the data, active = GI50 up to about 1.1 µM and inactive = higher.

Key:
Assay in all cases: inhibition of tumour cell growth, NCI panel, 48 h
ACHN = tested on: ACHN
CCRF-CEM = tested on: CCRF-CEM
COLO 205 = tested on: COLO 205
EKVX = tested on: EKVX
HCC 2998 = tested on: HCC 2998
K562 = tested on: K562
MDA-MB-231 = tested on: MDA-MB-231
MDA-MB-435 = tested on: MDA-MB-435
NCI-H226 = tested on: NCI-H226
NCI-H460 = tested on: NCI-H460
PC-3 = tested on: PC-3
RPMI-8226 = tested on: RPMI-8226
SK-MEL-28 = tested on: SK-MEL-28
T47D = tested on: T47D
U-251 = tested on: U-251
HOP-92 = tested on: HOP-92
NCI-H522 = tested on: NCI-H522
OVCAR-3 = tested on: OVCAR-3
RXF 393 = tested on: RXF 393

Measured: GI50

O=C(/C=C/c1ccc(Cl)cc1)c1cccs1
inactive: ACHN 20 µM | CCRF-CEM 6.61 µM | COLO 205 19.3 µM | EKVX 26.6 µM | HCC 2998 18.6 µM | K562 4.03 µM | MDA-MB-231 20 µM | MDA-MB-435 13 µM | NCI-H226 22.4 µM | NCI-H460 18.4 µM | PC-3 18.2 µM | RPMI-8226 3.1 µM | SK-MEL-28 26.2 µM | T47D 21 µM | U-251 16 µM

CC(C)[Si](Oc1cc2c3c(ccc2c(O)c1[C@@H](C)CO[Si](C)(C)C(C)(C)C)C(C)(C)CCC3)(C(C)C)C(C)C
inactive: ACHN > 100 µM | CCRF-CEM 43.4 µM | COLO 205 > 100 µM | EKVX > 100 µM | HOP-92 > 100 µM | K562 43.7 µM | MDA-MB-231 > 100 µM | MDA-MB-435 > 100 µM | NCI-H226 > 100 µM | NCI-H460 78 µM | NCI-H522 39.5 µM | OVCAR-3 86.1 µM | PC-3 74.6 µM | RPMI-8226 49.8 µM | RXF 393 > 100 µM | SK-MEL-28 > 100 µM | U-251 > 100 µM

COc1ccc(N2C(=O)/C(=C/c3ccc(N(CCC#N)CCC#N)cc3)N=C2c2ccccc2)c(OC)c1
inactive: ACHN > 100 µM | CCRF-CEM 21.9 µM | COLO 205 > 100 µM | EKVX > 100 µM | HCC 2998 > 100 µM | HOP-92 31.1 µM | K562 18.1 µM | MDA-MB-231 > 100 µM | MDA-MB-435 > 100 µM | NCI-H226 27.4 µM | NCI-H460 > 100 µM | NCI-H522 22 µM | OVCAR-3 98.4 µM | RPMI-8226 29 µM | SK-MEL-28 > 100 µM | T47D 27.1 µM | U-251 48.2 µM

O=c1[nH]n(Cc2ccccc2)c2ccc([N+](=O)[O-])cc12
inactive: ACHN > 100 µM | CCRF-CEM 55.2 µM | COLO 205 > 100 µM | EKVX > 100 µM | HCC 2998 36.3 µM | HOP-92 55.8 µM | K562 28.8 µM | MDA-MB-231 28.7 µM | MDA-MB-435 19.9 µM | NCI-H226 > 100 µM | NCI-H460 40.6 µM | NCI-H522 65.5 µM | OVCAR-3 > 100 µM | PC-3 37.2 µM | RPMI-8226 48.5 µM | RXF 393 71.9 µM | SK-MEL-28 57.9 µM | U-251 49.8 µM

CN(C)CCNC(=O)c1cccc2c(NC(CCCNC(=N)N)C(=O)O)c3ccccc3[n+](C)c12 (centres undefined)
inactive: ACHN 68.7 µM | COLO 205 38.9 µM | EKVX > 100 µM | HCC 2998 69.5 µM | K562 > 100 µM | MDA-MB-231 37.1 µM | MDA-MB-435 > 100 µM | NCI-H226 39.5 µM | NCI-H460 49.3 µM | OVCAR-3 > 100 µM | PC-3 79.8 µM | RPMI-8226 > 100 µM | SK-MEL-28 > 100 µM | T47D 80.9 µM | U-251 > 100 µM

CN(C)CCOc1ccc(I)cc1Cc1ccccc1
inactive: ACHN 12.2 µM | CCRF-CEM 4.85 µM | COLO 205 11.9 µM | EKVX 14.5 µM | HCC 2998 3.29 µM | K562 3.39 µM | MDA-MB-231 3.89 µM | MDA-MB-435 4.27 µM | NCI-H226 15.9 µM | NCI-H460 11.9 µM | NCI-H522 11.9 µM | OVCAR-3 13.2 µM | PC-3 8.28 µM | RPMI-8226 6.34 µM | RXF 393 15 µM | SK-MEL-28 4.74 µM | T47D 3.81 µM | U-251 12.4 µM

Cc1ccc(C)n1-c1ccccc1C1SCCCS1
inactive: ACHN > 100 µM | CCRF-CEM 59.8 µM | COLO 205 > 100 µM | EKVX > 100 µM | HCC 2998 > 100 µM | HOP-92 > 100 µM | K562 > 100 µM | MDA-MB-231 49.9 µM | MDA-MB-435 > 100 µM | NCI-H226 > 100 µM | NCI-H460 > 100 µM | NCI-H522 > 100 µM | OVCAR-3 > 100 µM | PC-3 > 100 µM | RPMI-8226 > 100 µM | RXF 393 > 100 µM | SK-MEL-28 > 100 µM | U-251 > 100 µM

Cc1c(-c2ccccc2)[nH]c2cn[nH]c(=O)c12
inactive: ACHN > 100 µM | CCRF-CEM 57.1 µM | COLO 205 > 100 µM | EKVX 34.6 µM | HCC 2998 > 100 µM | HOP-92 > 100 µM | K562 99.8 µM | MDA-MB-231 > 100 µM | MDA-MB-435 > 100 µM | NCI-H460 > 100 µM | NCI-H522 86.1 µM | OVCAR-3 39.6 µM | PC-3 67.9 µM | RPMI-8226 74 µM | SK-MEL-28 > 100 µM | U-251 > 100 µM
